Tests used:
LNCaP = test: MTT cytotoxic assay, LNCaP; format: cell-based, human
Experimental: (§1) Two human prostate cancer cell lines LNCaP and PC3 are maintained in RPMI1640 (Sigma Chemical Company, St. Louis, Mo., USA) supplemented with 10% fetal bovine serum (HyClone). Hepatocellular carcinoma cell line Hep G2, epithelial cervical cancer cell line HeLa and nasopharyngeal carcinoma cell line CNE are maintained in DMEM (Invitrogen) supplemented with 10% new-born calf serum (Gibco), 100 U/ml penicillin and 100 μg/ml streptomycin (Invitrogen). All cancer cells are maintained in a humidified atmosphere containing 5% CO2 at 37° C.
(§2) Different cancer cells are seeded in a 96-well plate and pre-incubated for 24 hours before treatment with Guttiferone F (0-50 μM). After 48 h of treatment, 10 μl of MTT solution (5 mg/ml) (Sigma Chemical Company, St. Louis, Mo., USA) are added to each well and incubated for 4 h. The resulting crystals are dissolved in DMSO. The controls include native cells and medium only. The spectrophotometric absorbance at 570 nm is measured using a microplate reader (Synergy HT, Bio-Tek Instruments Inc., Winooski, Vt., USA). The percentage cytotoxicity is calculated by the formula: Percentage cytotoxicity (cell death)=[1-(absorbance of experimental wells/absorbance of control wells)]×100%.

PC-3 = test: MTT cytotoxic assay, PC-3; format: cell-based; settings: Homo sapiens, 48 h of treatment
Experimental: as §1, §2

Hep G2 = test: MTT cytotoxic assay, Hep G2; format: cell-based; settings: Homo sapiens, HepG2, 48 h of treatment
Experimental: as §1, §2

HeLa = test: MTT cytotoxic assay, HeLa; format: cell-based; settings: Homo sapiens, 48 h of treatment
Experimental: as §1, §2

LNCaP cells [1] = test: Flow cytometry (PI, FACS) sub-G1 apoptosis; format: cell-based, human; settings: 10 μM, serum-free medium, 24 h and 48 h
Experimental: Based on the result of the above MTT assay on prostate cancer cell lines, LNCaP cells and 10 μM of Guttiferone F are selected for studying the effect of Guittiferone F on apoptosis of human prostate cancer cells. Before that, LNCaP cells are treated with Guttiferone F at the concentration of 10 μM. Cells are trypsinized and fixed in ice-cold 100% methanol overnight at 4° C. Cells are washed, stained with propidium iodide (PI) for overnight, and subjected to fluorescence activated cell sorting (FACS) analysis on a FAC Scan flow cytometer (BD PharMingen, USA). Data are analyzed using the WinMID software.
To detect the apoptosis, sub-G1 phase cells were measured. Such cells are usually considered to be the result of apoptotic DNA fragmentation. The DNA is degraded by cellular endonucleases, during apoptosis. Therefore, nuclei of apoptotic cells contain less DNA than nuclei of healthy G0/G1 cells, resulting in a sub-G1 peak in the fluorescent histogram that may be used to determine the relative amount of apoptotic cells.

LNCaP cells [2] = test: Hoechst 33258 / MitoTracker Red confocal microscopy; format: cell-based, human; settings: treatment for 12 h or 24 h, laser confocal microscopy
Experimental: Hoechst is depicted as blue in the first column of images while MitoTracker Red is depicted as red in the second column of images; double stain of Hoechst 33258 and MitoTacker Red is shown in the third column of images, in which the dotted square in each image represents the area where the part is enlarged; the corresponding enlarged area of the image from the third column is shown in the fourth column.
LNCaP cells (2×10^5) are seeded on 35 mm culture dish and incubated 24 h to allow attachment. After the different treatment of Guttiferone F for 12 h or 24 h, the medium is removed from the dish and the staining solution (50 μg/ml Hoechst 33258 and 1 ng/ml MitoTracker Red in PBS) is added. The fluorescence of the bound dyes is analyzed using a laser scanning confocal microscope (FV10i, Olympus Corporation, Japan).

PC3 cells [3] = test: PC3 xenograft nude mouse model A, intratumoral injection; format: in vivo, nude mice; settings: intratumoral injection every two days for 20 days; 20 μM 3 times, then 100 μM; FIG. 4, p<0.05
Experimental: A total of 1×10^6 PC3 cells suspended in 100 μl of PBS and 100 μl of Matrigel (BD Biosciences, Bedford, Mass.) are inoculated subcutaneously (s.c.) into the right flank of six 4-week-old male nude mice. Drug injections are made once the tumors reach an average volume of about 100 mm^3. Mice are divided randomly into two groups of 3 mice in each group and subjected to intratumoral injection of vehicle (control) or […] Guttiferone F every two days for 20 days. (After 20 μM GF for 3 times, the dosage is increased to 100 μM GF). Tumor volume is measured by calipers and calculated by V=L×W^2/2 at different time intervals. For intratumoral injection, […] Guttiferone F is prepared in 5% dimethyl sulfoxide, 5% tween 80, and 90% PBS.

PC3 cells [4] = test: PC3 xenograft nude mouse model B, intraperitoneal injection 10 mg/kg; format: in vivo, nude mice; settings: intraperitoneal injection 10 mg/kg every two days for 18 days; FIG. 5
Experimental: A total of 1×10^6 PC3 cells suspended in 100 μl of PBS and 100 μl of Matrigel are inoculated subcutaneously into the right flank of […] 4-week-old male nude mice. Drug injections are made once the tumors reach an average volume of about 200 mm^3. Mice are divided randomly into two groups of 7 for each group and subjected to intraperitoneal injection of vehicle or 10 mg/kg Guttiferone F every two days for 18 days. Tumor volume is measured by calipers and calculated by V=L×W^2/2. For intratumoral injection, Guttiferone F is prepared in 5% dimethyl sulfoxide, 5% tween 80, and 90% PBS.

PC3 cells [5] = test: PC3 xenograft BALB/c nude mice, intraperitoneal GF with or without caloric restriction; format: in vivo; settings: i.p. 20 mg/kg normally fed, or 10 mg/kg with caloric restriction, versus control; FIG. 6, p<0.01
Experimental: Four-week-old male BALB/c nude mice from the Experimental Animal Center of Chinese Academy of Science (Shanghai, China) are used in this example. Approximately 1×10^6 PC3 cells suspended in 100 μl of PBS and 100 μl of Matrigel are injected subcutaneously into the right side of the animals. One week later, 28 mice bearing tumors around 50 mm^3 in volume are randomly divided into four groups (n=7 per group): Group 1: Control (normally fed, receiving daily i.p. vehicle), Group 2: Caloric restriction (fed with 70% of their normal food intake, receiving daily i.p. vehicle), Group 3: GF (normally fed, receiving daily i.p. 20 mg/kg of GF), and Group 4: GF+caloric restriction (calorie-restricted mice receiving daily i.p. 10 mg/kg of GF). Mice are administered via intraperitoneal injection of vehicle (control) in a form of solvent (0.5% DMSO, 0.5% Tween-80 in saline) and GF at the dose of 10 mg/kg or 20 mg/kg in 200 μl vehicle once every other day. […] Using the conversion formula between animal dose and human dose taught in Regan-Shaw et al. (2007), the daily human dose of GF through intraperitoneal injection is about 1.62 mg/kg to 2.4 mg/kg (corresponding to 20 mg/kg of GF for mouse); the daily human dose of GF under calorie restriction is at least in a range of 0.81 mg/kg to 1.2 mg/kg (corresponding to 10 mg/kg of GF for mouse).

C=C(C)[C@H](CC=C(C)C)C[C@@]12C[C@@H](CC=C(C)C)C(C)(C)[C@@](CC=C(C)C)(C(=O)C(C(=O)c3ccc(O)c(O)c3)=C1O)C2=O [Guttiferone F]
IC50 (LNCaP; Homo sapiens, LNCaP, MTT, 48 h of treatment): 5.17 ± 0.2 µM
selectivity between cell lines in MTT assay (LNCaP; prostate cancer cell lines versus other cell lines, Table 1): more specific to human prostate cancer than the others
IC50 (PC-3): 12.6 ± 3.01 µM
IC50 (Hep G2): 32.9 ± 1.56 µM
IC50 (HeLa): 13.1 ± 1.32 µM
apoptosis (sub-G1 phase cells) (LNCaP cells [1]): induce LNCaP cell death by apoptosis significantly
change in mitochondria and nucleus DNA (LNCaP cells [2]): DNA fragmentation and mitochondria focus are visualized
tumor growth (tumor volume) (PC3 cells [3]): the growth of tumor is inhibited significantly after 14 days
tumor growth (tumor volume) (PC3 cells [4]): the growth of tumor is not inhibited significantly in 18 days
tumor growth (tumor volume) (PC3 cells [5]): tumor growth is significantly less prominent
